Legend:
Assay type in all cases: in vivo
[1] = system: Myzus persicae; assay: Myzus persicae spray test (MYZUPE), Chinese cabbage leaf disks; conditions: mortality
Protocol: (§1) For all examples the efficiencies of the compositions comprising at least one BCA and at least one specific insecticide has been determined by the “Colby-formula”. The expected efficacy of a given combination of two compounds is calculated as follows (see Colby, S. R., “Calculating Synergistic and antagonistic Responses of Herbicide Combinations”, Weeds 15, pp. 20-22, 1967): If • X is the efficacy expressed in % mortality of the untreated control for test compound A at a concentration of m ppm respectively m g/ha, • Y is the efficacy expressed in % mortality of the untreated control for test compound B at a concentration of n ppm respectively n g/ha, • E is the efficacy expressed in % mortality of the untreated control using the mixture of A and B at m and n ppm respectively m and n g /ha, then
(§2) If the observed insecticidal efficacy of the combination is higher than the one calculated as “E”, then the combination of the two compounds is more than additive, i.e., there is a synergistic effect.
Myzus persicae—Spray Test (MYZUPE)
To produce a suitable preparation of active compound, 1 part by weight of active compound is mixed with the stated amount of solvent and emulsifier, and the concentrate is diluted with emulsifier-containing water to the desired concentration. To produce a suitable preparation of a spore suspension the spores are diluted with emulsifier-containing water to the desired concentration.
Chinese cabbage (Brassica pekinensis) leaf—disks infected with all instars of the green peach aphid (Myzus persicae), are sprayed with a preparation of the active ingredient of the desired concentration.
After the specified period of time, mortality in % is determined. 100% means all aphids have been killed; 0% means none of the aphids have been killed. The mortality values determined thus are recalculated using the Colby-formula (see above).

[2] = system: Phaedon cochleariae; assay: Phaedon cochleariae spray test, Chinese cabbage leaf disks; conditions: 0.16 g ai/ha; mortality
Protocol: as §1, §2
Phaedon cochleariae—Spray Test […]
After the specified period of time, mortality in % is determined. […] The mortality values determined thus are recalculated using the Colby-formula (see above).

[3] = system: Spodoptera frugiperda; assay: Spodoptera frugiperda spray test, maize leaf sections; conditions: mortality
Protocol: as §1, §2
(§3) Spodoptera frugiperda—Spray Test
To produce a suitable preparation of the active compound, 1 part by weight of active compound is mixed with the stated amount of solvent and emulsifier, and the concentrate is diluted with emulsifier-containing water to the desired concentration. To produce a suitable preparation of a spore suspension the spores are diluted with emulsifier-containing water to the desired concentration.
Maize (Zea mais) leaf sections are sprayed with a preparation of the active ingredient of the desired concentration. Once dry, the leaf sections are infested with fall armyworm larvae (Spodoptera frugiperda).
After the specified period of time, mortality in % is determined. 100% means all caterpillars have been killed and 0% means none of the caterpillars have been killed. The mortality values determined thus are recalculated using the Colby-formula (see above).

[4] = system: Spodoptera frugiperda; assay: Spodoptera frugiperda spray test, cotton leaves; conditions: mortality
Protocol: as §3
To produce a suitable preparation of active compound, 1 part by weight of active compound was mixed with the stated amount of solvent and was diluted with water, containing an emulsifier concentration of 1000 ppm, to the desired concentration. To produce a suitable preparation of a spore suspension the spores were diluted with emulsifier-containing water to the desired concentration. Further test concentrations were prepared by dilution with emulsifier-containing water. Ammonium salt and/or penetration enhancer in a dosage of 1000 ppm were added if necessary.
Cotton leaves (Gossypium hirsutum) were treated by being sprayed with the preparation of the active compound of the desired concentration and were infested with caterpillars of the fall army worm (Spodoptera frugiperda).
After the specified period of time % mortality was determined. 100% means all the caterpillars were killed, and 0% means none of the caterpillars were killed.

[5] = system: Aphis gossypii; assay: Aphis gossypii spray test, cotton leaves; conditions: 2 ppm; mortality
Protocol: as §1, §2
Aphis gossypii—Spray Test […]
After the specified period of time, the mortality in % is determined. […] The mortality values determined thus are recalculated using the Colby-formula (see above).

## CC1(C)C(C=C(Cl)Cl)C1C(=O)OC(C#N)c1ccc(F)c(Oc2ccccc2)c1 (stereo not drawn) [ß-Cyfluthrin (I106), beta-Cyfluthrin]
[1]; 0.16 g/ha
  Efficacy in % after 1 d: 0%
  Efficacy in % after 6 d: 0%
[1]; 2 g/ha
  Efficacy in % after 6 d: 0%
[2]
  Efficacy in % after 6 d: 0%
[3]; 0.16 g ai/ha
  Efficacy in % after 6 d: 0%
[3]; 0.4 g ai/ha
  Efficacy in % after 6 d: 33%

## Cc1c(COC(=O)[C@@H]2[C@H](/C=C(\Cl)C(F)(F)F)C2(C)C)cccc1-c1ccccc1 (racemic) [Bifenthrin]
[4]; 0.5 ppm
  Efficacy in % after 3 days: 0%
  Efficacy in % after 6 days: 20%
[4]; 2 ppm
  Efficacy in % after 2 days: 20%
[4]; 8 ppm
  Efficacy in % after 2 days: 60%

## Cc1c(F)c(F)c(COC(=O)[C@@H]2[C@H](/C=C(\Cl)C(F)(F)F)C2(C)C)c(F)c1F (racemic) [Tefluthrin (I134), Tefluthrin]
[1]; 2 g/ha
  Efficacy in % after 6 d: 0%
[5]
  Efficacy in % after 1 d: 15%
[3]; 0.4 g ai/ha
  Efficacy in % after 6 d: 17%
[3]; 4 g ai/ha
  Efficacy in % after 6 d: 50%
[3]; 10 g ai/ha
  Efficacy in % after 2 d: 0%

## CC1(C)[C@H](C(=O)O[C@H](C#N)c2cccc(Oc3ccccc3)c2)[C@@H]1C=C(Br)Br [Deltamethrin (I116), Deltamethrin]
[1]; 0.032 g/ha
  Efficacy in % after 6 d: 0%
